Experiment in all cases: growth of human tumour cells (NCI), 48 h
Assay [1] concerns CAKI-1.
Assay [2] has as its system CCRF-CEM.
The subject of assay [3] is COLO 205.
In assay [4] the test system is HCC 2998.
Assay [5] has as its system HCT-15.
The subject of assay [6] is HL-60.
Assay [7] deals with HOP-92.
For assay [8], the system named is IGROV-1.
Assay [9] deals with K562.
The test system of assay [10] is MCF7.
For assay [11], the system named is MDA-MB-231.
Assay [12] deals with MOLT-4.
Assay [13] concerns OVCAR-4.
Assay [14] concerns PC-3.
The test system of assay [15] is RXF 393.
Assay [16] concerns SF-268.
For assay [17], the system named is SNB-19.
For assay [18], the system named is TK-10.
Assay [19] concerns U-251.
The test system of assay [20] is BT-549.

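Where inhibition never reached the appropriate level, the endpoint shown equals the highest concentration tested. Otherwise, values were interpolated linearly from a five-concentration, 48-hour dose response in 96-well plates. GI50 marks 50% less growth.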 The source made the active and inactive calls. No stated cut-off is given here; in the data, active = GI50 up to about 1.1 µM and inactive = higher. Bounds are passed on as bounds.

In the case of `O=C1c2ccccc2C(=O)c2sc(Nc3cc(Cl)ccc3Cl)nc21`, the GI50 was 5.02 µM (inactive) in assay [1]; 4.29 µM (inactive) in assay [2]; 16 µM (inactive) in [3]; 5.86 µM (inactive) in [4]; 2.94 µM in assay [5]; 0.736 µM (active) in assay [6]. Also, the GI50 was 15.1 µM (inactive) in assay [7]; 4.15 µM (inactive) in assay [8]; 2.99 µM (inactive) in assay [9]; 1.7 µM (inactive) in [10]; 1.87 µM (inactive) in assay [11]; 2.52 µM (inactive) in assay [12]. The GI50 in [13] is 4.16 µM (inactive); in assay [14], 3.21 µM (inactive); in assay [15], 14.3 µM (inactive); in assay [16], 4.09 µM (inactive); in assay [17] it was 14.3 µM (inactive); in [18], 15 µM (inactive). For the same molecule, the GI50 in assay [19] was 6.56 µM (inactive).
In the case of `CCC(=O)Nc1ccc(N2C(=O)/C(=C/c3ccc(O)c(OC)c3)N=C2c2ccccc2)cc1`, the GI50 in assay [20] is 20.4 µM (inactive); in assay [1] it was 17.3 µM (inactive); in [2], 22.1 µM (inactive); in assay [4], 21 µM (inactive); in [5], 21.3 µM; in assay [6], 24 µM (inactive). Moreover, the GI50 is 46.5 µM (inactive) in assay [7]; 31.1 µM (inactive) in [8]; 18.5 µM (inactive) in assay [9]; 31.6 µM (inactive) in [10]; 11.3 µM (inactive) in assay [12]; 9.91 µM (inactive) in [13]. Moreover, the GI50 in assay [14] was 16.5 µM (inactive); in assay [15], 10.9 µM (inactive); in assay [16] it was 27 µM (inactive); in [17], 22.5 µM (inactive).
As to `CN1CCN(Cc2nc3c(s2)CCc2sccc2-3)CC1`, the GI50 in [20] was > 100 µM (inactive); in [1], 37.7 µM (inactive); in assay [2], > 100 µM (inactive); in assay [3], > 100 µM (inactive); in assay [4], 51.4 µM (inactive); in assay [5] it was greater than 100 µM. The GI50 in assay [8] is > 100 µM (inactive); in assay [9], 89.3 µM (inactive); in [10] it was 79.8 µM (inactive); in [11] it was 52.2 µM (inactive); in assay [12], 77.8 µM (inactive); in [13], > 100 µM (inactive). Also, the GI50 in [14] is 63.8 µM (inactive); in assay [15], 75.5 µM (inactive); in [16] it was 82.6 µM (inactive); in assay [17], 74.8 µM (inactive); in [18], 92.7 µM (inactive); in assay [19] it was > 100 µM (inactive).
For `CC1(C)N=c2c(ncn2-c2ccccc2)=C(C(N)=O)N1`, the GI50 in assay [1] is > 100 µM (inactive); in assay [2] it was > 100 µM (inactive); in [3], > 100 µM (inactive); in assay [4], > 100 µM (inactive); in assay [5], greater than 100 µM; in [6], > 100 µM (inactive). The GI50 in [8], in assay [9], in assay [10], in assay [11], in [13] and in assay [14] was > 100 µM (inactive) in each case. For the same molecule, the GI50 in assay [15], in assay [16], in [17], in [18] and in assay [19] was > 100 µM (inactive) throughout.
In the case of `O=C(NCCC1([N+](=O)[O-])CCN(C(=O)c2ccccc2)CC1)c1ccccc1`, the GI50 in [20] was > 100 µM (inactive); in assay [1], 42.3 µM (inactive); in [2] it was > 100 µM (inactive); in assay [3], 53.7 µM (inactive); in [5], greater than 100 µM; in assay [6], > 100 µM (inactive). In addition, the GI50 in [7] was < 0.01 µM (active); in assay [8], > 100 µM (inactive); in assay [9], > 100 µM (inactive); in assay [11], > 100 µM (inactive); in assay [12], > 100 µM (inactive); in assay [13] it was 52 µM (inactive). Further, the GI50 in assay [14] is > 100 µM (inactive); in [15], 67 µM (inactive); in assay [16], > 100 µM (inactive); in assay [17], > 100 µM (inactive); in assay [18], > 100 µM (inactive); in assay [19] it was > 10 µM (inactive).
In the case of `O=C(NC/C(Cl)=C/Cl)Nc1cccc2c1CCCC2`, the GI50 is 86.9 µM (inactive) in [1]; > 100 µM (inactive) in [3]; > 100 µM (inactive) in assay [4]; greater than 100 µM in assay [5]; 55.7 µM (inactive) in [7]; > 100 µM (inactive) in [8]. Further, the GI50 is > 100 µM (inactive) in [10]; > 100 µM (inactive) in assay [11]; 29.5 µM (inactive) in assay [12]; > 100 µM (inactive) in [13]; 74.5 µM (inactive) in assay [14]; > 100 µM (inactive) in assay [15]. Further, the GI50 in assay [16] is > 100 µM (inactive); in assay [17] it was > 100 µM (inactive); in [18], 46.7 µM (inactive); in [19] it was > 100 µM (inactive).
Take `Cc1ccc(S(=O)(=O)NC(=O)Nc2cc(Cl)c(S(N)(=O)=O)cc2S(N)(=O)=O)cc1`: the GI50 in [20] is > 100 µM (inactive); in assay [1] it was > 100 µM (inactive); in assay [2] it was > 100 µM (inactive); in assay [3], > 100 µM (inactive); in [5] it was greater than 100 µM; in assay [6] it was > 100 µM (inactive). The GI50 in assay [7], in assay [8], in [9], in [10], in assay [11] and in assay [12] was > 100 µM (inactive) each time. In addition, the GI50 in assay [13], in [15], in assay [16], in [17], in [18] and in [19] was > 100 µM (inactive) throughout.
In the case of `CCCC(=O)NC(NC1CCCCC1)(C(=O)OCC)C(F)(F)F` (stereo not given), the GI50 was > 100 µM (inactive) in [2]; > 100 µM (inactive) in [4]; greater than 100 µM in assay [5]; > 100 µM (inactive) in assay [6]; > 100 µM (inactive) in assay [7]; > 100 µM (inactive) in assay [8]. For the same molecule, the GI50 in assay [9], in [10], in assay [12], in assay [13], in assay [14] and in assay [15] was > 100 µM (inactive) in each case. Besides, the GI50 in assay [16], in assay [17], in assay [18] and in [19] was > 100 µM (inactive) throughout.
For `COCCN(CCOC)C(=O)COc1c2cc(C(C)(C)C)cc1Cc1cc(C(C)(C)C)cc(c1OCC(=O)N(CCOC)CCOC)Cc1cc(C(C)(C)C)cc(c1OCC(=O)N(CCOC)CCOC)Cc1cc(C(C)(C)C)cc(c1OCC(=O)N(CCOC)CCOC)Cc1cc(C(C)(C)C)cc(c1OCC(=O)N(CCOC)CCOC)C2`, the GI50 is 0.705 µM (active) in [2]; 0.562 µM (active) in assay [3]; 2.25 µM (inactive) in assay [4]; 2.81 µM in [5]; 1.25 µM (inactive) in assay [6]; 1.18 µM (inactive) in assay [8]. In addition, the GI50 in assay [9] is 0.491 µM (active); in [10], 1.3 µM (inactive); in [11], 1.99 µM (inactive); in [12], 1.74 µM (inactive); in assay [13] it was 0.467 µM (active); in [14], 0.659 µM (active). Also, the GI50 was 1.09 µM (active) in assay [15]; 1.93 µM (inactive) in assay [16]; 1.34 µM (inactive) in [17]; 2.76 µM (inactive) in assay [18]; 0.53 µM (active) in assay [19].
Turning to `O=C(O)C1(CC(CCCN2CCCCC2)c2ccccc2)CCCC1` (stereo not given), the GI50 was > 100 µM (inactive) in assay [1]; > 100 µM (inactive) in assay [2]; > 100 µM (inactive) in assay [3]; > 100 µM (inactive) in assay [4]; greater than 100 µM in [5]; > 100 µM (inactive) in assay [6]. Further, the GI50 in [7], in assay [8], in [9], in assay [10], in [11] and in assay [12] was > 100 µM (inactive) throughout. Moreover, the GI50 in [13], in [14], in [15], in assay [16], in assay [17] and in assay [18] was > 100 µM (inactive) each time. Moreover, in [19], the GI50 was > 100 µM (inactive).
With `[O-][S+](Nc1ccccc1)c1ccc(N2CCOCC2)cc1` (stereo not given), the GI50 in [20] was 6.82 µM (inactive); in assay [2], 54.2 µM (inactive); in assay [3], 59.6 µM (inactive); in [4] it was 91.2 µM (inactive); in assay [5], 13 µM; in [6] it was 53.8 µM (inactive). Besides, the GI50 in [8] was 13.6 µM (inactive); in assay [9] it was 27.3 µM (inactive); in assay [10], 57.4 µM (inactive); in assay [11] it was 86.7 µM (inactive); in assay [12], 44.7 µM (inactive); in assay [13] it was > 100 µM (inactive). In addition, the GI50 in assay [16] is 15.4 µM (inactive); in assay [17] it was > 100 µM (inactive); in assay [18], > 100 µM (inactive); in [19], > 100 µM (inactive).

These data come from ChEMBL document CHEMBL1201862, “PubChem BioAssay data set” (2004).
